How the values were obtained:
porcine liver esterase = assay: Esterase enzymatic assay (radio-TLC cleavage); assay type: in vitro ADME; conditions: 37 C
Experimental: The in vitro metabolism studies were performed using 25 U/mL solutions of porcine liver esterase in PBS. [^131I]HIB (1), [^131I]IPH (2), or [^131I]HIB-ether (3) (3.7 MBq each) was also dissolved in PBS with 10% DMSO. Esterase (2.5 U) was then added to each radiotracer solution, and the solution was gently shaken at 37° C.
With these hypotheses in mind, we performed systematic mechanistic studies. First, we carried out an esterase enzymatic assay. All three radiotracers, [^131I]HIB, [^131I]IPH, and [^131I]HIB-ether, were incubated separately with esterase (Sigma Aldrich, St. Louis, MO, USA) at 37° C. in a 10% DMSO/PBS mixture, and the progress of the reactions was monitored for 24 h by radio-TLC (FIG. 3A).

[1] = In vitro metabolism with mouse liver microsome; assay type: in vitro ADME; conditions: 4 h incubation
Experimental: (§1) For the in vitro metabolic studies with mouse liver S9 fraction and microsome, 1-3 (3.7 MBq) were dissolved in PBS with 10% DMSO and mixed with the mouse liver S9 fraction (0.2 mg in 10 μL) or the microsome (0.2 mg in 10 μL) with NADPH (0.25 mM). The reaction was performed upon shaking at 550 rpm at 37° C. The hydrolysis rate of each radiotracer was measured by radio-TLC for up to 24 h.

[2] = In vitro metabolism with mouse liver S9 fraction; assay type: in vitro ADME; conditions: 4 h incubation
Experimental: as §1

[3] = Ex vivo cleavage in liver homogenate
Experimental: Ex vivo studies to determine the cleavage rates of the examined radiotracers in different organs were performed using the homogenates of mouse tissues collected from CT26 tumor models. Liver, spleen, and tumor tissues were collected and weighted. After the addition of ice-cold PBS solution at a ratio of 1:1 (w/w), the tissues were homogenized with a homogenizer (Ultra-Turrax, IKA, Selangor, Malaysia) under ice-cold conditions. The crude homogenate was then centrifuged at 2,000 g, and the sediment was discarded. Each supernatant (300 μL), referred to as tissue homogenate, was immediately mixed with each radiotracer (3.7 MBq) dissolved in PBS with 10% DMSO. The reaction was then performed upon shaking at 550 rpm at 37° C., and the hydrolysis rate of each radiotracer was measured by radio-TLC for up to 24 h. […] Urine and fecal samples were collected separately at 0.5, 1, 2, 4, 8, 16, and 24 h post-injection, and their radioactivity was measured with a dose calibrator (CRC-Ultra; Capintec, Florham Park, NJ, USA). […] The same urine sample was further analyzed by HPLC [Luna C8 column (4.6×50 mm, 5 μm), 0.1% TFA/H2O (solventA), and 0.1% TFA/acetonitrile (solvent B)] using a gradient of 10-100% B in 5 min and 10% B for 27 min, which continued for up to 45 min at a flow rate of 1 mL/min.

[4] = Ex vivo cleavage in spleen homogenate; assay type: in vitro ADME, mouse; conditions: 4 h and 24 h
Excerpt: Liver, spleen, and tumor tissues were collected and weighted.

normal BALB/c mice = assay: Urinary and fecal excretion of radioactive metabolites; assay type: in vivo, mouse
[5] = Lipophilicity (log P) of the radiotracer; assay type: physicochemical
[6] = system: orthotopic PANC-1/Luc+ pancreatic tumor BALB/c nude mice; assay: PET/CT imaging of orthotopic pancreatic tumor model; assay type: in vivo; conditions: L4 at 24 h post-injection; FDG at 1 h post-injection, same mouse
Experimental: The establishment of the tumor in the orthotopic pancreatic tumor models was confirmed at 13 days post-inoculation of PANC-1/Luc+ cells into the pancreas tail with bioluminescence imaging using D-luciferin (60 mg/kg). The next day, [^18F]FDG-PET/CT (FDG: fluorodeoxyglucose) imaging was performed at 1 h post-injection (7.4 MBq/mouse) for 20 min.
Two days after [^18F]FDG imaging, [^124I]L4 (6.3-9.3 MBq in 200 μL PBS) was administered into the tail vein of the same mouse and PET/CT images were acquired at 1, 4, and 24 h post-injection.

| cleavage percentage (porcine liver esterase; 4 h) [%] | cleavage percentage (porcine liver esterase; 24 h) [%] | Compound | cleavage percentage [1] [%] | cleavage percentage [2] [%] | cleavage ([3]; 4 h) [%] | cleavage ([3]; 24 h) [%] | cleavage rate lower than in the liver [4] [%] | radioactivity in the feces relative to that in urine (normal BALB/c mice; after i.v. [131I]HIB-liposome) | metabolite found in urine (normal BALB/c mice; urine 3 h post-injection, radio-TLC and HPLC) | log P [5] | tumor detection in PET image [6] |
| --- | --- | --- | --- | --- | --- | --- | --- | --- | --- | --- | --- |
| 15.9 | 20.3 | CCCCCCCCCCCCCCCCOc1ccc(I)cc1 [[^131I]HIB-ether, 1-(hexadecyloxy)-4-[^124/131I]iodobenzene] | 16.0 | 19.3 | 23 | 25 | – | – | – | – | – |
| – | – | CCCCCCCCCCCCCCCCOC(=O)c1ccc([131I])cc1 [[^131I]HIB] | 85.3 | 89.7 | ~75 | ~88 | ~18 | less than 5% | 4-[^131I]iodobenzoic acid | 2.19±0.04 | – |
| – | – | CCCCCCCCCCCCCCCCC(=O)Oc1ccc([131I])cc1 [[^131I]IPH, 4-[^124/131I]iodophenyl heptadecanoate] | 87.3 | 91.3 | ~75 | ~88 | ~18 | – | – | – | – |
| – | – | fluorodeoxyglucose [[^18F]FDG] | – | – | – | – | – | – | – | – | the tumor could barely be detected |

— patent US20240336632A1, “NOVEL COMPOUND COMPRISING ESTER GROUP AND USES THEREOF” (priority 2021, published 2024)
